Values of other authors in US6964946B1, “Oral pharmaceutical compositions containing taxanes and methods of treatment employing the same” (Baker Norton Pharmaceuticals, Inc., priority 1995, dated 2005).
“Also recorded” adds a separate entry of the source.

CC(=O)O[C@H]1C(=O)[C@@]2(C)[C@H]([C@H](OC(=O)c3ccccc3)[C@]3(O)C[C@H](OC(=O)[C@H](O)[C@@H](NC(=O)c4ccccc4)c4ccccc4)C(C)=C1C3(C)C)[C@]1(OC(C)=O)CO[C@@H]1C[C@@H]2O [Paclitaxel, paclitaxel]
level at which inhibition of tubulin disassembly occurs (tubulin): about 0.1 μM; also recorded: about 85 ng/ml
level at which inhibition of protein isoprenylation occurs (protein isoprenylation): about 0.03 μM; also recorded: about 25 ng/ml
